For one series, the system named is herring sperm DNA. Description: DNA melting temperature by differential scanning calorimetry (DSC). In kind it is binding. As to conditions: DSC; herring sperm DNA; DNA melting temperature = 68° C. The protocol: Representative compounds prepared as described in Example 2 were assessed in two complementary DNA-binding assays. Increased melting temperature of herring sperm DNA was measured using differential scanning calorimetry (DSC) and binding kinetics were determined by surface plasmon resonance (SPR) using a short DNA hairpin sequence.
DSC experiments were conducted as described in Leng, 2003, Nucleic Acids Res., 31 (21): […], using a Nano DSC (TA Instruments, New Castle, DE) and analyzed using the NanoAnalyze™ software package. Herring sperm DNA solution (Invitrogen 15634017, 10 mg/mL) was diluted to 1 mg/mL (1.4 mM base pair) in BPE buffer (6 mM Na2HPO4, 2 mM NaH2PO4, 1 mM Na4EDTA, pH 7.0). Test articles (20 μL, 10 mM in DMSO) were added and allowed reach equilibrium binding (>3 h), any insoluble material was removed by low-speed centrifugation, then samples were heated from 25 to 110° C. at a scan rate of 1° C./min. Melting curves were plotted and melting temperature was determined using NanoAnalyze™.
(In general: In DSC, transitions show as peaks or steps in heat flow.)

Series [1] is described as follows: Lipophilicity by experimental HPLC retention time. In kind it is physicochemical. As to conditions: HPLC retention time as measure of lipophilicity; C18, 10 to 90% CH3CN/H2O with 0.1% FA over 25 min. The protocol: The ability to kill neighboring cells (i.e. bystander effect) is an important property for ADC payloads. For a payload comprising a compound of Formula I to be capable of bystander killing, membrane permeability (or transport) is required and the ability of compounds of Formula I to cross cell membranes and exert a cytotoxic effect was expected to be heavily influenced by lipophilicity.
Compounds were analyzed using an Agilent 1260 HPLC (Agilent Technologies, Inc., Santa Clara, CA) equipped with a Diode array detector and using a Phenomenex Kinetex EVO C18 150×4.6, 2.6 μm column (Phenomenex, Torrance, CA), eluting with 10 to 90% CH3CN/H2O with 0.1% FA over 25 min.

The subject of series [2] is tumour cells (at least 4 of a panel of ovarian, breast, lung, pancreatic, placenta, colon cell lines). Description: In vitro cytotoxicity (cell proliferation, CellTiter-Glo), average over tumour cell line panel. In kind it is cell-based. As to conditions: average pIC50 on all cell lines tested; 5 nights incubation; CellTiter-Glo. The protocol: The ability of representative compounds of Formula I to inhibit proliferation of tumour cells in vitro was evaluated in at least 4 of the following cell lines: OVCAR-3 (ovarian, ATCC), SKOV-3 (ovarian, ATCC), IGROV-1 (ovarian, national research council of Canada (NRC)), OV-90 (ovarian, ATCC), OVKATE (Ovarian, Japanese Collection of Research Bioresources (JCRB) (JCRB1044)), JIMT-1 (breast, NRC), SK-BR-3 (breast, ATCC), T-47D (breast, ATCC), ZR-75-1 (breast, ATCC), MDA-MB-468 (breast, AddexBio), BT-20 (breast, ATCC), BT-474 (breast, NRC), MDA-MB-175 (breast, AddexBio), A549 (lung, collaborator), NCI-H226 (lung, NRC), NCI-H661 (lung, NRC), NCI-H1573 (lung, ATCC). NCI-H1563 (lung, ATCC), H358 (lung, collaborator), EBC-1 (lung, Xenotech), H1299 (lung, NRC), NCI-H292 (lung, ATCC), HCC817 (lung, ATCC), NCI-H441 (lung, ATCC), MIA-PaCa-2 (pancreatic, ATCC), BxPC-3 (pancreatic, ATCC), Panc-1 (pancreatic, ATCC), AsPC-1 (pancreatic, ATCC), JEG-3 (placenta, AddexBio), HT-29 (colon, ATCC).
Cells were cultured per vendor instructions and in log-phase growth were detached by brief incubation in 0.05% trypsin, then resuspended in respective culturing media at 20,000 cells/mL (except for ZR-75 cells, which were resuspended at 10,000 cells/mL). 50 μL/well (˜1000 cells/well) were transferred to sterile tissue culture (TC)-treated 384-well plates (ThermoFisher Scientific, Catalogue #164610) and incubated overnight at 37° C. with 5% CO2 to allow the cells to adhere to the plate surface. The next day, in a sterile, V-bottom, 96-well plate, test articles were titrated 1:3 in complete growth medium, creating a 10-point dose response titration with compounds at 3.5-times the desired final concentration. 20 μL from each dilution were added to the 384-well plate containing the seeded cells and these plates were incubated at 37° C. with 5% CO2 for 5 nights. Cell viability was quantified by first incubating with 15 μL/well of CellTiter-Glo® (Promega, Catalogue #G7572) for 30 minutes, then measuring luminescence with a microplate luminometer (BioTek® Synergy™ H1 Microplate Reader). IC50 values were determined by GraphPad Prism (GraphPad Software, San Diego, CA).
The results are presented in Table 7.1 and discussed in Example 7. Table 7.1 presents the results as average pIC50 values. pIC50=−log (IC50), thus, for example, pIC50=9 is equivalent to IC50=1 nM, and pIC50=6 is equivalent to IC50=1 μM.
(In general: ATP-based viability assays read luminescence as a measure of living cells.)

Molecules are shown by their SMILES.

In the case of `CC(C)[C@H]1C(=O)N(C)C[C@@H](NC(=O)c2nc3ccccc3cc2O)C(=O)N2CCCC[C@H]2C(=O)NCC(=O)N(C)CC(=O)N(C)[C@@H](C(C)C)C(=O)N(C)C[C@@H](NC(=O)c2nc3ccccc3cc2O)C(=O)N2CCCC[C@H]2C(=O)NCC(=O)N(C)CC(=O)N1C` [Compound 42, N,N′-((7R,11S,19aS,26R,30S,38aS)-11,30-diisopropyl-9,12,15,28,31,34-hexamethyl-6,10,13,16,19,25,29,32,35,38-decaoxohexatriacontahydro-2H,6H-dipyrido[1,2-a:1′,2′-q][1,4,7,10,13,17,20,23,26,29]decaazacyclodotriacontine-7,26-diyl)bis(3-hydroxyquinoline-2-carboxamide)], the “DNA melt (° C.)” value with herring sperm DNA is 88 °C. The “HPLC” value in series [1] came to 17.7 min. For the same compound, the “pIC50 (average)” value in series [2] worked out at 7.3.
In the case of `CN1CC(=O)N2CCCC[C@H]2C(=O)NC[C@@H](NC(=O)c2nc3ccccc3cc2O)C(=O)N2CCCC[C@H]2C(=O)NCC(=O)N(C)CC(=O)N2CCCC[C@H]2C(=O)NC[C@@H](NC(=O)c2nc3ccccc3cc2O)C(=O)N2CCCC[C@H]2C(=O)NCC1=O` [Compound 49, N,N′-((7R,10aS,22aS,29R,32aS,44aS)-18,40-dimethyl-6,10,16,19,22,28,32,38,41,44-decaoxotetratetracontahydrotetrapyrido[1,2-a:1′,2′-j:1″,2″-q:1″,2′″-z][1,4,7,10,13,17,20,23,26,29]decaazacyclodotriacontine-7,29-diyl)bis(3-hydroxyquinoline-2-carboxamide)], the “DNA melt (° C.)” value with herring sperm DNA stood at 97 °C. Moreover, the “HPLC” value in series [1] was determined as 15.7 min. The “pIC50 (average)” value in series [2] was 7.2.
For `CC(C)[C@H]1C(=O)NC[C@@H](NC(=O)c2nc3ccccc3cc2O)C(=O)N2CCCC[C@H]2C(=O)NCC(=O)N(C)CC(=O)N(C)[C@@H]([C@@H](C)OC(C)(C)C)C(=O)NC[C@@H](NC(=O)c2nc3ccccc3cc2O)C(=O)N2CCCC[C@H]2C(=O)NCC(=O)N(C)CC(=O)N1C` [Compound 54, N,N′-((7R,11S,19aS,26R,30S,38aS)-11-((R)-1-(tert-butoxy)ethyl)-30-isopropyl-12,15,31,34-tetramethyl-6,10,13,16,19,25,29,32,35,38-decaoxohexatriacontahydro-2H,6H-dipyrido[1,2-a:1′,2′-q][1,4,7,10,13,17,20,23,26,29]decaazacyclodotriacontine-7,26-diyl)bis(3-hydroxyquinoline-2-carboxamide)], in that order: 88 °C, 18.4 min and 8.1.
With `CC(C)[C@H]1C(=O)NC[C@@H](NC(=O)c2nc3ccccc3cc2O)C(=O)N2CCCC[C@H]2C(=O)NCC(=O)N(C)CC(=O)N(C)[C@@H]([C@@H](C)O)C(=O)NC[C@@H](NC(=O)c2nc3ccccc3cc2O)C(=O)N2CCCC[C@H]2C(=O)NCC(=O)N(C)CC(=O)N1C` [Compound 55, N,N′-((7R,11S,19aS,26R,30S,38aS)-11-((R)-1-hydroxyethyl)-30-isopropyl-12,15,31,34-tetramethyl-6,10,13,16,19,25,29,32,35,38-decaoxohexatriacontahydro-2H,6H-dipyrido[1,2-a:1′,2′-q][1,4,7,10,13,17,20,23,26,29]decaazacyclodotriacontine-7,26-diyl)bis(3-hydroxyquinoline-2-carboxamide)], the “DNA melt (° C.)” value in the series with herring sperm DNA came to 86 °C. In addition, in series [1], the “HPLC” value came to 10.6 min. In addition, in series [2], the “pIC50 (average)” value was “inactive”.
With `CC[C@H](C)[C@H]1C(=O)NC[C@@H](NC(=O)c2nc3ccccc3cc2O)C(=O)N2CCCC[C@H]2C(=O)NCC(=O)N(C)CC(=O)N(C)[C@@H](C(C)C)C(=O)NC[C@@H](NC(=O)c2nc3ccccc3cc2O)C(=O)N2CCCC[C@H]2C(=O)NCC(=O)N(C)CC(=O)N1C` [Compound 72], the “DNA melt (° C.)” value in the series on herring sperm DNA is 89 °C. For the same compound, the “HPLC” value in series [1] worked out at 18.0 min. The “pIC50 (average)” value in series [2] amounted to 7.6.
As for `CC(C)[C@H]1C(=O)NC[C@@H](NC(=O)c2nc3ccccc3cc2O)C(=O)N2CCCC[C@H]2C(=O)NCC(=O)N(C)CC(=O)N2CCC[C@H]2C(=O)NC[C@@H](NC(=O)c2nc3ccccc3cc2O)C(=O)N2CCCC[C@H]2C(=O)NCC(=O)N(C)CC(=O)N1C` [Compound 77], the “DNA melt (° C.)” value in the series on herring sperm DNA worked out at 88 °C. The “HPLC” value in series [1] turned out to be 15.0 min. For the same compound, the “pIC50 (average)” value in series [2] amounted to 6.9.
In the same order, the values of `CC(C)[C@H]1C(=O)NC[C@@H](NC(=O)c2nc3ccccc3cc2O)C(=O)N2CCCC[C@H]2C(=O)NCC(=O)N(C)CC(=O)N2CCCC[C@H]2C(=O)NC[C@@H](NC(=O)c2nc3ccccc3cc2O)C(=O)N2CCCC[C@H]2C(=O)NCC(=O)N(C)CC(=O)N1C` [Compound 82] are 92 °C, 16.4 min and 8.0.
For `CC(C)[C@H]1C(=O)NC[C@@H](NC(=O)c2nc3ccccc3cc2O)C(=O)N2CCCC[C@H]2C(=O)NCC(=O)N(C)CC(=O)N2CCCCC[C@H]2C(=O)NC[C@@H](NC(=O)c2nc3ccccc3cc2O)C(=O)N2CCCC[C@H]2C(=O)NCC(=O)N(C)CC(=O)N1C` [Compound 88, N,N′-((5aS,9R,15aS,24S,28R,34aS)-24-isopropyl-20,23,39-trimethyl-6,10,16,19,22,25,29,35,38,41-decaoxotetracontahydro-1H,12H-azepino[1,2-j]dipyrido[1,2-a:1′,2′-q][1,4,7,10,13,17,20,23,26,29]decaazacyclodotriacontine-9,28-diyl)bis(3-hydroxyquinoline-2-carboxamide)], in the series on herring sperm DNA, the “DNA melt (° C.)” value is 88 °C. The “HPLC” value in series [1] came out at 16.4 min. Moreover, the “pIC50 (average)” value in series [2] came to 8.5.
As to `CC(C)[C@H]1C(=O)NC[C@@H](NC(=O)c2nc3ccccc3cc2O)C(=O)N2CCCC[C@H]2C(=O)NCC(=O)N(C)CC(=O)N(C)[C@@H](C2CCCCC2)C(=O)NC[C@@H](NC(=O)c2nc3ccccc3cc2O)C(=O)N2CCCC[C@H]2C(=O)NCC(=O)N(C)CC(=O)N1C` [Compound 97, N,N′-((7R,11S,19aS,26R,30S,38aS)-11-cyclohexyl-30-isopropyl-12,15,31,34-tetramethyl-6,10,13,16,19,25,29,32,35,38-decaoxohexatriacontahydro-2H,6H-dipyrido[1,2-a:1′,2′-q][1,4,7,10,13,17,20,23,26,29]decaazacyclodotriacontine-7,26-diyl)bis(3-hydroxyquinoline-2-carboxamide)], in the series on herring sperm DNA, the “DNA melt (° C.)” value is 86 °C. Also, the “HPLC” value in series [1] worked out at 18.9 min. Moreover, the “pIC50 (average)” value in series [2] is 8.4.

These data come from US20240376154A1, “BIS-INTERCALATING PEPTIDES, CONJUGATES AND METHODS OF USE” (ZYMEWORKS BC INC., priority 2023, published 2024).
